# Data taken from patent US20220184025A1, “NOVEL DEPSIDE DIMERIC COMPOUNDS FOR SKELETAL MUSCLE MODULATION, METHODS AND USES THEREOF” (SOCIETE DES PRODUITS NESTLE S.A., priority 2019, published 2022).
# Tested on: mouse hindlimb muscles
# Experiment: In vivo muscle regeneration after cardiotoxin injury
# Details: mice, oral gavage 100 mg/kg body weight once a day from one week before cardiotoxin injury; muscles harvested 5 days after the injury; vs. water control
# Method: Early phase of expansion and subsequent phase of myogenic differentiation of Muscle Stem Cells were evaluated by counting the number of Pax7+ cells (A) and myogenin+ cells (B), respectively. Data are expressed as number of cells per area of injured muscle. The size of each newly formed myofiber (C) has been measured based on the expression of the eMHC and laminin that allow to recognize and delineate these nascent myofibers. Results are shown as mean myofiber cross-sectional area (μm2).
# In order to reproduce the physiological process of muscle regeneration that occurs in adult skeletal muscles in response to injury or disease, we performed an intramuscular injection of cardiotoxin into mouse hindlimb muscles. One week prior to the induction of the muscle injury, mice were given by oral gavage diffractaic acid (at 100 mg/kg body weight) vs. water control. Mice were treated once a day until the end of the experiment. To evaluate the efficiency of the muscle regeneration, muscles that have been previously injured were harvested 5 days after the injury and cryosections were prepared. Several myogenic markers were then measured. […]
# Data are expressed as number of cells per area of injured muscle. The size of each newly formed myofiber (FIG. 10C) has been measured based on the expression of the eMHC and laminin that allow to recognize and delineate these nascent myofibers. […]
smiles,measurement,value
"COc1cc(C)c(C(=O)Oc2cc(C)c(C(=O)O)c(O)c2C)c(OC)c1C [Diffractaic acid, Benzoic acid, 2,4-dimethoxy-3,6-dimethyl-, 4-carboxy-3-hydroxy-2,5-dimethylphenyl ester]",in vivo muscle regeneration process,able to promote the in vivo muscle regeneration process
